The source of these data is ChEMBL document CHEMBL1201862, “PubChem BioAssay data set” (2004).

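In this assay, cells in 96-well plates receive the compound at five concentrations for 48 hours. Endpoints are linearly interpolated between the surrounding concentrations. Abbreviation: GI50, concentration required for 50% inhibition of growth.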 Calls of active or inactive are those of the source. No stated cut-off is given here; in the data, active = GI50 up to about 1.1 µM and inactive = higher.

Among the test systems are SNB-75; SK-MEL-5; EKVX; KM12; SW-620; HCT-116; MCF7; Malme-3M; TK-10; ACHN; HCT-15; OVCAR-4; NCI-H460; UACC-62; IGROV-1; NCI/ADR-RES; NCI-H23; HL-60; NCI-H522.
What all share (test): NCI anticancer screen, dose series, 48 h

For `N#C[C@H]1Nc2ccccc2[C@@H](O)C1O` (stereo partly specified), the GI50 in the experiment on SNB-75, in the experiment on SK-MEL-5, with EKVX, in the experiment with KM12, in the experiment with SW-620 and with HCT-116 was > 100 µM (inactive) throughout. The GI50 in the experiment on MCF7 was > 100 µM (inactive); in the experiment with Malme-3M, > 100 µM (inactive); in the experiment on TK-10 it was > 100 µM (inactive); in the experiment on ACHN, > 100 µM (inactive); with HCT-15 it was greater than 100 µM; in the experiment on OVCAR-4, > 100 µM (inactive). Further, the GI50 in the experiment with NCI-H460, with UACC-62, with IGROV-1, with NCI/ADR-RES, in the experiment on NCI-H23 and in the experiment on HL-60 was > 100 µM (inactive) in each case.

With `Cc1cccc(C)c1NC(=O)CCC(=O)/N=C(\N)NC#N`, the GI50 with SNB-75, in the experiment on SK-MEL-5, with EKVX, with KM12, with SW-620 and with HCT-116 was > 100 µM (inactive) each time. Moreover, the GI50 in the experiment with Malme-3M was > 100 µM (inactive); in the experiment on TK-10, > 100 µM (inactive); in the experiment with ACHN it was > 100 µM (inactive); with HCT-15, greater than 100 µM; with NCI-H522 it was > 100 µM (inactive); with OVCAR-4, > 100 µM (inactive). Further, the GI50 in the experiment on NCI-H460, in the experiment on UACC-62, with IGROV-1, with NCI-H23 and in the experiment on HL-60 was > 100 µM (inactive) throughout.

As to `CN(C)CCCOC(=O)C(c1ccccc1)C1(O)CCSCC1` (stereo unspecified), the GI50 is 87.1 µM (inactive) with SNB-75; > 100 µM (inactive) with SK-MEL-5; > 100 µM (inactive) in the experiment with EKVX; 68.2 µM (inactive) in the experiment with KM12; 32.3 µM (inactive) in the experiment on SW-620; > 100 µM (inactive) in the experiment on HCT-116. Moreover, the GI50 is > 100 µM (inactive) in the experiment on MCF7; > 100 µM (inactive) in the experiment on Malme-3M; > 100 µM (inactive) in the experiment with TK-10; > 100 µM (inactive) in the experiment on ACHN; greater than 100 µM in the experiment on HCT-15; > 100 µM (inactive) in the experiment on NCI-H522. In addition, the GI50 was > 100 µM (inactive) in the experiment on OVCAR-4; > 100 µM (inactive) in the experiment on NCI-H460; > 100 µM (inactive) in the experiment on UACC-62; > 100 µM (inactive) with IGROV-1; 10.2 µM (inactive) in the experiment with NCI/ADR-RES; > 100 µM (inactive) in the experiment with NCI-H23. Further, the GI50 in the experiment on HL-60 is > 100 µM (inactive).

As to `CCN(c1n[n+]2c(-c3ccccc3)csc2s1)c1n[n+]2c(-c3ccccc3)csc2s1`, the GI50 was > 100 µM (inactive) in the experiment with SNB-75; 38 µM (inactive) in the experiment with SK-MEL-5; > 100 µM (inactive) in the experiment with EKVX; 30.8 µM (inactive) with KM12; 94.6 µM (inactive) with SW-620; 19.3 µM (inactive) with HCT-116. Further, the GI50 with Malme-3M was 23.3 µM (inactive); with TK-10 it was > 100 µM (inactive); in the experiment on ACHN it was > 100 µM (inactive); in the experiment on HCT-15 it was greater than 100 µM; in the experiment with NCI-H522, 35.6 µM (inactive); in the experiment with OVCAR-4, 35.4 µM (inactive). For the same compound, the GI50 is 53.1 µM (inactive) in the experiment with NCI-H460; > 100 µM (inactive) with UACC-62; > 100 µM (inactive) with IGROV-1; 44.6 µM (inactive) in the experiment on NCI-H23; 22.3 µM (inactive) in the experiment with HL-60.

As for `CCOc1ccccc1NC(=O)C1=C(C)NC(C)=C(C(=O)Nc2ccccc2OCC)C1c1cccc([N+](=O)[O-])c1`, the GI50 in the experiment with SNB-75 is 11.6 µM (inactive); in the experiment with SK-MEL-5, 32.1 µM (inactive); in the experiment on EKVX it was 30.1 µM (inactive); in the experiment on KM12, 49.9 µM (inactive); in the experiment with SW-620, 42.6 µM (inactive); in the experiment on Malme-3M, 58.3 µM (inactive). The GI50 in the experiment with TK-10 is > 100 µM (inactive); in the experiment with ACHN, 29.9 µM (inactive); in the experiment on NCI-H522, 22.4 µM (inactive); with OVCAR-4, 14.2 µM (inactive); in the experiment with NCI-H460, 87.9 µM (inactive); in the experiment on IGROV-1, > 100 µM (inactive). Besides, the values for the GI50 in the experiment with NCI-H23 and with HL-60 were > 100 µM (inactive) and 30.5 µM (inactive), respectively.

`CC(=O)CC(=O)N(CCN(C(=O)CC(C)=O)c1ccccc1)c1ccccc1`: the GI50 is 51.8 µM (inactive) with SNB-75; > 100 µM (inactive) in the experiment with SK-MEL-5; > 100 µM (inactive) with EKVX; > 100 µM (inactive) in the experiment on KM12; > 100 µM (inactive) in the experiment with SW-620; > 100 µM (inactive) in the experiment on HCT-116. For the same compound, the GI50 in the experiment with Malme-3M is > 100 µM (inactive); with TK-10, > 100 µM (inactive); in the experiment on ACHN, > 100 µM (inactive); in the experiment with NCI-H522, 84.7 µM (inactive); in the experiment on OVCAR-4, > 100 µM (inactive); in the experiment on NCI-H460, > 100 µM (inactive). The GI50 in the experiment with UACC-62 is > 100 µM (inactive); with IGROV-1 it was > 100 µM (inactive); with NCI-H23 it was > 100 µM (inactive); in the experiment on HL-60 it was 43.4 µM (inactive).

In the case of `CCOC(=O)Cc1c(C)c2ccc(OC(C)=O)c(OC(C)=O)c2oc1=O`, the GI50 with SNB-75 was 19.4 µM (inactive); in the experiment on SK-MEL-5, 19.5 µM (inactive); with EKVX, 23.1 µM (inactive); in the experiment on KM12 it was 32.7 µM (inactive); in the experiment with SW-620, 20.7 µM (inactive); with HCT-116 it was 34 µM (inactive). Further, the GI50 in the experiment on MCF7 is 24.6 µM (inactive); in the experiment with Malme-3M, 12.3 µM (inactive); in the experiment with TK-10 it was 20.9 µM (inactive); in the experiment with ACHN it was 33.8 µM (inactive); in the experiment with HCT-15, 18.7 µM; in the experiment on OVCAR-4 it was 16.5 µM (inactive). The GI50 in the experiment on UACC-62 was 32.7 µM (inactive); in the experiment with IGROV-1 it was 15.3 µM (inactive); in the experiment with NCI/ADR-RES it was 22 µM (inactive); in the experiment with NCI-H23, 22.4 µM (inactive).

Take `O=[N+]([O-])c1ccc(-n2nnc(C3=NCCN3)c2-c2ccccc2)cc1`: the GI50 in the experiment with SNB-75, in the experiment on SK-MEL-5, in the experiment on EKVX, in the experiment on KM12, in the experiment on SW-620 and in the experiment on HCT-116 was > 100 µM (inactive) in each case. Further, the GI50 was > 100 µM (inactive) in the experiment on Malme-3M; > 100 µM (inactive) with TK-10; > 100 µM (inactive) with ACHN; greater than 100 µM in the experiment with HCT-15; > 100 µM (inactive) in the experiment with NCI-H522; > 100 µM (inactive) in the experiment on OVCAR-4. For the same compound, the GI50 in the experiment with NCI-H460, in the experiment with UACC-62, with IGROV-1, with NCI-H23 and in the experiment on HL-60 was > 100 µM (inactive) throughout.

As to `COC(=O)c1c[nH]c2nc(N3CCOCC3)nn2c1=O`, the GI50 with SNB-75, in the experiment on SK-MEL-5, in the experiment on EKVX, in the experiment with KM12, with SW-620 and in the experiment with HCT-116 was > 100 µM (inactive) throughout. For the same compound, the GI50 with Malme-3M is > 100 µM (inactive); in the experiment with TK-10, > 100 µM (inactive); in the experiment with ACHN it was > 100 µM (inactive); in the experiment with HCT-15 it was greater than 100 µM; in the experiment with NCI-H522 it was > 100 µM (inactive); with OVCAR-4, > 100 µM (inactive). Further, the GI50 with NCI-H460 is > 100 µM (inactive); in the experiment on UACC-62, > 100 µM (inactive); in the experiment with IGROV-1 it was 1.84 µM (inactive); with NCI-H23, > 100 µM (inactive); in the experiment on HL-60, > 100 µM (inactive).

For `O=C(c1ccccc1)C1N=NN(Cc2ccccc2[N+](=O)[O-])C1C(=O)c1ccccc1` (stereo unspecified), the GI50 is 41.5 µM (inactive) in the experiment with SNB-75; > 100 µM (inactive) with SK-MEL-5; > 100 µM (inactive) with EKVX; > 100 µM (inactive) in the experiment on KM12; > 100 µM (inactive) with SW-620; > 100 µM (inactive) with HCT-116. Moreover, the GI50 was > 100 µM (inactive) in the experiment on Malme-3M; > 100 µM (inactive) in the experiment with TK-10; > 100 µM (inactive) in the experiment with ACHN; greater than 100 µM in the experiment on HCT-15; > 100 µM (inactive) with NCI-H522; > 100 µM (inactive) in the experiment on OVCAR-4. The GI50 in the experiment on NCI-H460, with UACC-62, in the experiment with IGROV-1, with NCI-H23 and with HL-60 was > 100 µM (inactive) in each case.

Take `CC1=C(C(=O)NCc2ccccc2)C(c2ccc(Cl)c(Cl)c2)C(C(=O)NCc2ccccc2)=C(C)N1`: the GI50 in the experiment on SNB-75, with SK-MEL-5, in the experiment on EKVX, with KM12, in the experiment on SW-620 and with HCT-116 was > 100 µM (inactive) in each case. Moreover, the GI50 with Malme-3M is > 100 µM (inactive); in the experiment with TK-10, > 100 µM (inactive); in the experiment with ACHN, > 100 µM (inactive); in the experiment on HCT-15, greater than 100 µM; in the experiment with NCI-H522, > 100 µM (inactive); in the experiment on OVCAR-4, > 100 µM (inactive). For the same compound, the GI50 with NCI-H460, in the experiment on UACC-62, with IGROV-1, with NCI-H23 and in the experiment on HL-60 was > 100 µM (inactive) in each case.

`CC(C)N(C(=O)C12C3C4C1C1C2C3C41I)C(C)C` (stereo unspecified): the GI50 in the experiment on SNB-75, in the experiment on SK-MEL-5, with EKVX, in the experiment with KM12, in the experiment with SW-620 and in the experiment on HCT-116 was > 100 µM (inactive) in each case. Further, the GI50 with Malme-3M, with TK-10, in the experiment with ACHN, in the experiment on NCI-H522, in the experiment on OVCAR-4 and with NCI-H460 was > 100 µM (inactive) each time. Also, the GI50 with UACC-62, in the experiment with IGROV-1, with NCI-H23 and in the experiment with HL-60 was > 100 µM (inactive) each time.
